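How tested: cells in 96-well plates exposed to compound for 48 hours at five concentrations. Abbreviation: GI50, concentration required for 50% inhibition of growth.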 Calls of active or inactive are those of the source. No stated cut-off is given here; in the data, active = GI50 up to about 1.1 µM and inactive = higher.
What was measured:
Experiment in all cases: DTP human tumour cell line panel, 48 h
IGROV-1 = tested on: IGROV-1
CCRF-CEM = tested on: CCRF-CEM
RPMI-8226 = tested on: RPMI-8226
HOP-62 = tested on: HOP-62
M14 = tested on: M14
NCI/ADR-RES = tested on: NCI/ADR-RES
COLO 205 = tested on: COLO 205
KM12 = tested on: KM12
ACHN = tested on: ACHN
HCT-15 = tested on: HCT-15
OVCAR-4 = tested on: OVCAR-4
OVCAR-3 = tested on: OVCAR-3
CAKI-1 = tested on: CAKI-1
MCF7 = tested on: MCF7
A549 = tested on: A549
OVCAR-8 = tested on: OVCAR-8
SNB-19 = tested on: SNB-19
SK-MEL-2 = tested on: SK-MEL-2
A498 = tested on: A498
Hs-578T = tested on: Hs-578T
SW-620 = tested on: SW-620
DU-145 = tested on: DU-145
EKVX = tested on: EKVX
HL-60 = tested on: HL-60
UO-31 = tested on: UO-31
K562 = tested on: K562
NCI-H460 = tested on: NCI-H460
SK-MEL-5 = tested on: SK-MEL-5
U-251 = tested on: U-251
SK-MEL-28 = tested on: SK-MEL-28
NCI-H23 = tested on: NCI-H23
MDA-MB-435 = tested on: MDA-MB-435
SNB-75 = tested on: SNB-75
MDA-MB-231 = tested on: MDA-MB-231
TK-10 = tested on: TK-10
SF-539 = tested on: SF-539
BT-549 = tested on: BT-549
SN12C = tested on: SN12C
UACC-62 = tested on: UACC-62
786-0 = tested on: 786-0
HCC 2998 = tested on: HCC 2998
NCI-H226 = tested on: NCI-H226
PC-3 = tested on: PC-3
HT-29 = tested on: HT-29
LOX IMVI = tested on: LOX IMVI
T47D = tested on: T47D
SF-268 = tested on: SF-268
RXF 393 = tested on: RXF 393
UACC-257 = tested on: UACC-257
OVCAR-5 = tested on: OVCAR-5
HCT-116 = tested on: HCT-116
NCI-H522 = tested on: NCI-H522
SR = tested on: SR
SF-295 = tested on: SF-295
Malme-3M = tested on: Malme-3M
SK-OV-3 = tested on: SK-OV-3
MOLT-4 = tested on: MOLT-4
HOP-92 = tested on: HOP-92
MDA-N = tested on: MDA-N

Measured: GI50

S=c1nc(N2CCCCC2)c2cn[nH]c2[nH]1
87.9 µM: HCT-15
inactive: IGROV-1 22.1 µM | CCRF-CEM 10.4 µM | RPMI-8226 12.2 µM | HOP-62 > 100 µM | M14 74 µM | NCI/ADR-RES > 100 µM | COLO 205 28.8 µM | KM12 29.5 µM | ACHN 54.6 µM | OVCAR-4 93.5 µM | OVCAR-3 54.8 µM | CAKI-1 27.7 µM | MCF7 34.6 µM | A549 76.7 µM | OVCAR-8 64.9 µM | SNB-19 > 100 µM | SK-MEL-2 20.1 µM | A498 > 100 µM | Hs-578T 57.4 µM | SW-620 57 µM | DU-145 59.7 µM | EKVX > 100 µM | HL-60 19.6 µM | UO-31 23.9 µM | K562 29.9 µM | NCI-H460 42.3 µM | SK-MEL-5 1.53 µM | U-251 60.5 µM | SK-MEL-28 65.6 µM | NCI-H23 40.4 µM | MDA-MB-435 46.1 µM | SNB-75 > 100 µM | MDA-MB-231 > 100 µM | TK-10 39.2 µM | SF-539 52.6 µM | BT-549 26.1 µM | SN12C 79.8 µM | UACC-62 50.1 µM | 786-0 88.5 µM | HCC 2998 44 µM | NCI-H226 > 100 µM | PC-3 59.2 µM | HT-29 41.8 µM | LOX IMVI 39.4 µM | T47D 59.6 µM | SF-268 78 µM | RXF 393 91.8 µM | UACC-257 98.9 µM | OVCAR-5 > 100 µM | HCT-116 56.6 µM | NCI-H522 16.7 µM | SR 14.5 µM | SF-295 59.6 µM | Malme-3M 64.9 µM

CC(C)[Si]1(C(C)C)OCC2OC3(CO)C(Oc4nc(=O)ccn43)C2O[Si](C(C)C)(C(C)C)O1 (configuration not stated)
15 µM: HCT-15
inactive: IGROV-1 17.3 µM | CCRF-CEM 5.14 µM | RPMI-8226 5.81 µM | HOP-62 15 µM | M14 14.8 µM | NCI/ADR-RES 17.4 µM | COLO 205 9.44 µM | KM12 13.3 µM | ACHN 15.5 µM | OVCAR-4 13.1 µM | CAKI-1 15.7 µM | MCF7 5.9 µM | OVCAR-8 14.1 µM | SNB-19 15.9 µM | SK-MEL-2 16.3 µM | Hs-578T 22.4 µM | SW-620 15.5 µM | DU-145 14 µM | EKVX 17.1 µM | HL-60 6.17 µM | UO-31 13.9 µM | K562 21 µM | NCI-H460 15 µM | SK-MEL-5 13.5 µM | U-251 14.2 µM | SK-MEL-28 15 µM | NCI-H23 15.5 µM | MDA-MB-435 15 µM | SNB-75 15 µM | MDA-MB-231 10.2 µM | TK-10 16.6 µM | SF-539 15 µM | BT-549 11.6 µM | SK-OV-3 20 µM | UACC-62 12.8 µM | 786-0 14.6 µM | HCC 2998 12.5 µM | MOLT-4 7.55 µM | NCI-H226 15.2 µM | PC-3 5.4 µM | HT-29 12.4 µM | LOX IMVI 15 µM | T47D 9.59 µM | SF-268 17 µM | RXF 393 5.57 µM | UACC-257 14.7 µM | HOP-92 16.5 µM | HCT-116 10.9 µM | SR 15.5 µM | SF-295 15 µM

CCOC(=O)Nn1cnnc1C
inactive: IGROV-1 > 100 µM | CCRF-CEM > 100 µM | RPMI-8226 > 100 µM | HOP-62 > 100 µM | M14 > 100 µM | NCI/ADR-RES > 100 µM | COLO 205 > 100 µM | KM12 > 100 µM | ACHN > 100 µM | OVCAR-4 > 100 µM | OVCAR-3 > 100 µM | CAKI-1 > 100 µM | MCF7 > 100 µM | A549 > 100 µM | OVCAR-8 > 100 µM | SNB-19 > 100 µM | SK-MEL-2 > 100 µM | A498 > 100 µM | SW-620 > 100 µM | EKVX > 100 µM | UO-31 > 100 µM | K562 > 100 µM | NCI-H460 > 100 µM | SK-MEL-5 > 100 µM | U-251 > 100 µM | NCI-H23 > 100 µM | MDA-MB-435 > 100 µM | MDA-MB-231 > 100 µM | TK-10 > 100 µM | SF-539 > 100 µM | BT-549 > 100 µM | SK-OV-3 > 100 µM | SN12C > 100 µM | UACC-62 > 100 µM | 786-0 > 100 µM | HCC 2998 > 100 µM | MOLT-4 > 100 µM | NCI-H226 > 100 µM | PC-3 > 100 µM | HT-29 > 100 µM | LOX IMVI > 100 µM | T47D > 100 µM | RXF 393 > 100 µM | UACC-257 > 100 µM | OVCAR-5 > 100 µM | HOP-92 > 100 µM | HCT-116 > 100 µM | NCI-H522 > 100 µM | SR > 100 µM | MDA-N > 100 µM | SF-295 > 100 µM | Malme-3M > 100 µM
> 100 µM: HCT-15

OC(c1ccc(F)cc1)C(F)(F)c1nc2ccccc2o1 (configuration not stated)
inactive: IGROV-1 > 100 µM | CCRF-CEM > 100 µM | RPMI-8226 90.6 µM | HOP-62 62.5 µM | M14 > 100 µM | NCI/ADR-RES 51.4 µM | COLO 205 > 100 µM | KM12 44.3 µM | ACHN > 100 µM | OVCAR-4 > 100 µM | CAKI-1 87.5 µM | MCF7 > 100 µM | OVCAR-8 51.2 µM | SNB-19 > 100 µM | SK-MEL-2 > 100 µM | A498 34.4 µM | SW-620 > 100 µM | DU-145 47 µM | EKVX > 100 µM | HL-60 > 100 µM | UO-31 > 100 µM | K562 30.8 µM | NCI-H460 > 100 µM | SK-MEL-5 50 µM | U-251 > 100 µM | SK-MEL-28 > 100 µM | NCI-H23 > 100 µM | MDA-MB-435 > 100 µM | SNB-75 21.6 µM | MDA-MB-231 83.8 µM | TK-10 > 100 µM | SF-539 > 100 µM | BT-549 > 100 µM | SK-OV-3 > 100 µM | UACC-62 > 100 µM | 786-0 > 100 µM | HCC 2998 > 100 µM | MOLT-4 46.6 µM | NCI-H226 > 100 µM | PC-3 > 100 µM | HT-29 > 100 µM | LOX IMVI > 100 µM | T47D 76 µM | SF-268 38.9 µM | RXF 393 39.4 µM | UACC-257 57.4 µM | HOP-92 21.7 µM | HCT-116 > 100 µM | SR > 100 µM | SF-295 > 100 µM
> 100 µM: HCT-15

O=C1CC(c2ccccc2)Oc2ccccc21 (configuration not stated) [FLAVANONE]
inactive: IGROV-1 23.4 µM | CCRF-CEM 24.2 µM | RPMI-8226 17.1 µM | HOP-62 48.4 µM | M14 51.9 µM | NCI/ADR-RES 34.9 µM | COLO 205 33.6 µM | KM12 35.7 µM | ACHN 47.6 µM | OVCAR-4 66.1 µM | CAKI-1 48.3 µM | MCF7 37.8 µM | OVCAR-8 48.9 µM | SNB-19 23.1 µM | SK-MEL-2 30.1 µM | A498 30.3 µM | Hs-578T 67.3 µM | SW-620 > 10 µM | DU-145 67.6 µM | EKVX 38.9 µM | HL-60 21.5 µM | UO-31 47.6 µM | K562 12.6 µM | NCI-H460 32.1 µM | SK-MEL-5 25.1 µM | U-251 38.6 µM | SK-MEL-28 > 100 µM | NCI-H23 15.9 µM | MDA-MB-435 31.9 µM | SNB-75 63.4 µM | MDA-MB-231 32.2 µM | TK-10 76.4 µM | SF-539 21.8 µM | BT-549 15.4 µM | SK-OV-3 84.1 µM | UACC-62 51.3 µM | 786-0 29.3 µM | HCC 2998 76.9 µM | MOLT-4 13.7 µM | NCI-H226 32.4 µM | PC-3 38.5 µM | HT-29 28 µM | LOX IMVI 26.5 µM | T47D 35.8 µM | SF-268 64.7 µM | RXF 393 36.2 µM | UACC-257 77.3 µM | HOP-92 24.9 µM | HCT-116 30.3 µM | SR 24 µM | SF-295 58.1 µM
26.1 µM: HCT-15

From ChEMBL document CHEMBL1201862, “PubChem BioAssay data set” (2004)
